# Laboratory results published in patent publication US12655083B2, “Solid forms of cannabidiol and uses thereof” (Artelo Biosciences, Inc., priority 2017, dated 2026).
# Legend:
# [1] = Approximate (kinetic) solubility estimate by aliquot addition with visual inspection; assay type: physicochemical; details: for solubility: thermodynamic from solid, ambient temperature
# Method: Weighed samples were treated with aliquots of a solvent or solvent mixture at RT. The mixtures were sonicated between additions to facilitate dissolution. Complete dissolution of the test material was determined by visual inspection. Solubility was estimated based on the total solvent used to provide complete dissolution. The actual solubility may be greater than the value calculated because of the use of solvent aliquots that were too large or due to a slow rate of dissolution. […] If complete dissolution was achieved as a result of only one aliquot addition, the solubility is expressed as “greater than.”
# Solubilities were estimated by adding measured aliquots of solvent to weighed amounts of cannabidiol at room temperature (RT). Samples were sonicated in between aliquot additions and dissolution was judged by visual inspection.
# [2] = Colour change of solutions from solubility estimates at room temperature; assay type: physicochemical; details: acetone, acetonitrile, DMA, DMF, p-dioxane, ethanol, IPOAc, MEK and methanol; after 1-3 days at room temperature
# Method: Kinetic solubility estimates of cannabidiol were determined in various solvents to aid in designing screening experiments (Tables 1 and 2). Solubilities were estimated by adding measured aliquots of solvent to weighed amounts of cannabidiol at room temperature (RT). Samples were sonicated in between aliquot additions and dissolution was judged by visual inspection. Discoloration of the solutions produced from solubility estimates in acetone, acetonitrile, DMA, DMF, p-dioxane, ethanol, IPOAc, MEK and methanol were observed after 1-3 days at room temperature.
smiles,measurement,setting,value
C=C(C)[C@@H]1CCC(C)=C[C@H]1c1c(O)cc(CCCCC)cc1O [Cannabidiol],solubility,"[1]; organic solvent or mixture, Acetone",23 mg/mL
same,solubility,"[1]; organic solvent or mixture, Acetonitrile",> 50 mg/mL
same,solubility,"[1]; organic solvent or mixture, Cyclohexane",15 mg/mL
same,solubility,"[1]; organic solvent or mixture, DCM",19 mg/mL
same,solubility,"[1]; organic solvent or mixture, DMSO",21 mg/mL
same,solubility,"[1]; organic solvent or mixture, Diethyl Ether",> 57 mg/mL
same,solubility,"[1]; organic solvent or mixture, EtOAc",> 46 mg/mL
same,solubility,"[1]; organic solvent or mixture, IPA",14 mg/mL
same,solubility,"[1]; organic solvent or mixture, IPOAc",> 68 mg/mL
same,solubility,"[1]; organic solvent or mixture, MEK",> 55 mg/mL
same,solubility,"[1]; organic solvent or mixture, MIBK",> 59 mg/mL
same,solubility,"[1]; organic solvent or mixture, MTBE",34 mg/mL
same,solubility,"[1]; organic solvent or mixture, MeOH",> 57 mg/mL
same,solubility,"[1]; organic solvent or mixture, NMP",29 mg/mL
same,solubility,"[1]; organic solvent or mixture, Octanol",13 mg/mL
same,solubility,"[1]; organic solvent or mixture, TFE",< 1 mg/mL
same,solubility,"[1]; organic solvent or mixture, THF",> 71 mg/mL
same,solubility,"[1]; organic solvent or mixture, p-dioxane",> 48 mg/mL
same,solubility,[1]; Water,< 1 mg/mL
same,Aqueous solubility estimate,"[1]; water, aliquot addition method",<1 mg/mL
same,Discoloration of solutions from solubility estimates,[2],Discoloration
